Experimental data as given in EP1201248A2, “Combination therapy of angiotensin converting enzyme inhibitor, side-effect reduced amount of aldosterone antagonist and diuretic for treatment of cardiovascular disease” (priority 1995, dated 1996).

What was measured:
[1] = cited from earlier work
[2] = spironolactone 50 mg/day to 100 mg/day (average 73 mg/day) and captopril; 90-patient study; cited from earlier work
[3] = spironolactone 100 mg/day coadministered with an ACE inhibitor; congestive heart failure; cited from earlier work
[4] = Human clinical trial of ACE inhibitor, spironolactone and loop diuretic: adverse events, hyperkalemia incidence, hospitalizations, deaths; details: patients previously at the 50 mg dose
[5] = Human clinical trial of ACE inhibitor, spironolactone and loop diuretic: weight, vital signs and cardiac assessments; type: in vivo, humans; details: for Supine diastolic BP, Mean Change from Baseline to Week 12 / Supine pulse, Mean Change from Baseline to Week 12 / Supine systolic BP, Mean Change from Baseline to Week 12 / Weight, Mean Change from Baseline to Week 12: with stable ACE inhibitor and loop diuretic, spread in parentheses
Description: Concurrent medication within the past 30 days. • 2. 12-lead ECG • 3. […] Signs and symptoms within the past 30 days.
All statistical methods were two-sided.

[6] = Human clinical trial of ACE inhibitor, spironolactone and loop diuretic: clinical laboratory values and neurohormones

CC(=O)S[C@@H]1CC2=CC(=O)CC[C@]2(C)[C@H]2CC[C@@]3(C)[C@@H](CC[C@@]34CCC(=O)O4)[C@H]12 [Spironolactone, 17-hydroxy-7a-mercapto-3-oxo-17a-pregn-4-ene-21-carboxylic acid γ-lactone acetate]
fibrosis in hypertensive rats ([1]; cohort treated with spironolactone sub-cutaneously, side-by-side with a captopril cohort): found to prevent fibrosis in the hypertensive-rat cohort | fibrosis in animal models ([1]; irrespective of left ventricular hypertrophy and hypertension): shown to prevent fibrosis in animal models | control of refractory CHF [2]: effective to control refractory CHF without serious incidents of hyperkalemia | patients in whom treatment was highly effective [3]: 13 of 16 | deaths within 30 days after the study was completed [4]: Three patients died | mean systolic and diastolic blood pressure, change ([5]; 25 mg, 50 mg and 75 mg groups, all visits, standing and supine): decreases in mean systolic and diastolic blood pressure | body weight, change from baseline ([5]; 75 mg dose group, Day 9 and Week 4, not observed at later visits): more weight loss than other patients | sodium retention score, dose response ([5]; Day 9 (p = 0.019), not seen at later visits (p >0.20)): higher doses showing more reduction in sodium retention score | changes in loop diuretic therapy ([5]; Week 8 (p = 0.004), compared to the placebo group, not observed at Week 12): more patients on the higher doses of spironolactone had decreases in the loop diuretic dose | Supine diastolic BP, Mean Change from Baseline to Week 12 ([5]; spironolactone 25 mg/d): -2.74 ( 9.57) | Supine pulse, Mean Change from Baseline to Week 12 ([5]; spironolactone 25 mg/d): -1.40(10.00) BPM | Supine systolic BP, Mean Change from Baseline to Week 12 ([5]; spironolactone 25 mg/d): -4.46(13.97) | Weight, Mean Change from Baseline to Week 12 ([5]; spironolactone 25 mg/d): -0.16 (3.02) | Supine diastolic BP, Mean Change from Baseline to Week 12 ([5]; spironolactone 50 mg/d): -5.11(11.11) | Supine pulse, Mean Change from Baseline to Week 12 ([5]; spironolactone 50 mg/d): -3.21(11.27) BPM | Supine systolic BP, Mean Change from Baseline to Week 12 ([5]; spironolactone 50 mg/d): -7.04(15.83) | Weight, Mean Change from Baseline to Week 12 ([5]; spironolactone 50 mg/d): 0.62 (2.05) | Supine diastolic BP, Mean Change from Baseline to Week 12 ([5]; spironolactone 75 mg/d): -5.91 (9.05) | Supine pulse, Mean Change from Baseline to Week 12 ([5]; spironolactone 75 mg/d): -1.07(13.79) BPM | Supine systolic BP, Mean Change from Baseline to Week 12 ([5]; spironolactone 75 mg/d): -5.68(15.62) | Weight, Mean Change from Baseline to Week 12 ([5]; spironolactone 75 mg/d): -0.81 (2.70) | NYHA Class, improvement ([5]; spironolactone groups vs placebo group): the difference was not statistically significant | PRA, change from baseline, dose-response ([6]; Day 9, Week 4 and Week 12 (P ≤0.001)): greater increases in PRA | Urinary aldosterone excretion, change from baseline, dose response ([6]; Week 12 (p = 0.002)): Greater increases were seen at higher doses | N-Terminal Atrial Natriuretic Factor (ANF), change from baseline ([6]; all active treatments, all treatment visits): decreases from baseline at all treatment visits | serum potassium, change from baseline, dose-response ([6]; all treatment period visits (p <0.001)): larger increases in potassium
